According to publication doi:10.1101/2025.09.29.679234, “Engineered antimicrobial-derived peptides to manipulate mixed microbial systems” (bioRxiv, 2025):
Where two headings read alike, the source gives them in different places. No end group written: not given here. *: point of attachment. FITC = O=C1OC2(c3ccc(O)cc3Oc3cc(O)ccc32)c2ccc(NC(=S)*)cc21

Experiments:
L. seeligeri [1] = test: Cell-binding assay by flow cytometry; parameters: species or system Listeria seeligeri; settings: for binding at the tested pHs (in words): pH 4.0, 6.0 and 7.4, Figure S10
Protocol: (§1) The binding affinity and avidity of pediocin to various Gram-positive and Gram-negative bacteria were studied using flow cytometry. Late log-phase cells were washed in the sodium phosphate buffer (5 mM, pH 6.0) and resuspended at an OD600 of 10^–3 in sodium-acetate buffer (25 mM, pH 4.0), sodium phosphate buffer (5 mM, pH 6.0) or sodium phosphate buffer (5mM, pH 7.4) containing 1 % BSA (bovine serum albumin) and 100 mM NaCl. Cells were incubated with varying concentrations of the conjugated peptide at 4 °C for 30 min. The unbound peptide was removed by centrifugation, and the pellet was resuspended in their respective binding containing 1 % BSA. Flow cytometry was performed on an Attune NxT flow cytometer (Life Technologies/ThermoFisher Scientific, Carlsbad, CA). Data (≥10^4 events were recorded) was recorded using a […] (488 nm) voltage of 360 V, gating was performed on SSC-A versus SSC-H plot to reduce false events.

L. seeligeri [2] = type: cell-based, Listeria seeligeri; settings: for antimicrobial activity (in words): kill curve / growth inhibition, Figures S7 and S9
Protocol: To determine the potency of the purified pediocin PA-1, we generated kill-curves against a range of target bacteria (Figure 1B). The concentration range tested was 3 pM to 3 μM following 10-fold serial dilutions. […] This is in approximate agreement with the published potency of pediocin PA-1 [28] . Though the molecular mass of pediocin PA-1 is expected to be 4.5 kDa, we observed the partially purified peptide to migrate with an apparent mass of ~12.5 kDa (Figure 1B). However, subsequent analysis by LC-MS yielded peaks of multiple m/z with the predominant peak at the expected molecular size of 4.6 kDa (Figure S4). The purified pediocin PA-1, separated on denaturing but non-reducing SDS-PAGE (since this bacteriocin contains two crucial disulfide bonds), was subjected to agar-overlay assay using L. seeligeri as indicator organism (Figure S5).
The antimicrobial spectrum of pediocin PA-1 was assayed using a kill curve. Cultures grown overnight were resuspended in fresh medium at an OD600 of 0.05. EC50 was determined by incubating cells with varying concentrations of pediocin in a 96-well plate, and growth was measured at 600 nm after 24 h.
Figure S7. Growth inhibition of L. seeligeri by modified and unmodified pediocin PA-1.

L. coryniformis = test: Cell-binding assay by flow cytometry; parameters: species or system Lactobacillus coryniformis; settings: flow cytometry, Atto488 conjugate up to 2 μM
Protocol: as §1

B. subtilis = test: Cell-binding assay by flow cytometry; parameters: species or system Bacillus subtilis; settings: flow cytometry
Protocol: as §1

[3] = system: L. seeligeri in a 5 species synthetic community; test: Depletion by FACS of FITC-labelled cells in the mixed community (16S V3-V4 amplicon sequencing of the fluorescence-negative population); type: cell-based, Listeria seeligeri; settings: 40 μM of Ped-FITC printed in method, 4 °C 30 min, pH 6.0, 1 % BSA, 100 mM NaCl
Excerpt: We posited that pediocin PA-1 characterized here could be a potential tool to modulate the abundance of specific species in an intact microbial community. To this end, we pursued two approaches: 1) using synthetic pediocin PA-1 to deplete specific species by killing and 2) using FITC-conjugated pediocin PA-1 to deplete specific species by cell sorting. To deplete L. seeligeri by killing, we created a synthetic community of L. casei, L. plantarum L. cremoris, E. faecium, and L. seeligeri and grew it for 2 h. We then split the culture into 3 parts to which we added 1 μM, 10 μM, or 0 (control) unmodified pediocin PA-1 (Lifetein), respectively. We observed that after 4 h, the proportion of L. seeligeri in the control (untreated) increased from 18 % to 60 %. […] Next, we assessed the ability of FITC-conjugated pediocin (Ped-FITC) and its 15-mer version to deplete the target species through cell sorting. Again, we created a synthetic community containing L. seeligeri in abundance and assessed the proportion before and after FACS of FITC labeled cells. We attempted to sequence the fluorescence-positive population but were unsuccessful due to poor DNA yield. However, the genomic DNA isolated from the fluorescence-negative population indicated depletion of more than 50 % in the proportion of L. seeligeri from the synthetic community (Figure 4B). […]

30-mer-FITC: FITC-conjugated extended 30-mer fragment (S15-K43) of pediocin PA-1 (SVDWGKATTCIINNGAMAWATGGHQGNHK; also: FITC-conjugated, site not given here; UniProt P29430 33-61, looked up, fragment)
binding at the tested pHs (in words) (L. seeligeri [1]): pH-dependent binding
binding (in words) (L. seeligeri [1]; pH 6.0, L. seeligeri or the other species tested): unable to bind to any species tested

CC[C@H](C)[C@@H]1NC(=O)[C@@H](NC(=O)[C@@H](NC(=O)[C@@H](NC(=O)[C@H](C)NC(=O)[C@H](CCCCN)NC(=O)CNC(=O)[C@H](Cc2c[nH]c3ccccc23)NC(=O)[C@H](CC(=O)O)NC(=O)[C@@H](NC(=O)[C@H](CO)NC(=O)[C@@H]2CSSC[C@H](NC(=O)[C@@H](NC(=O)[C@@H](NC(=O)CNC(=O)[C@H](CC(N)=O)NC(=O)CNC(=O)[C@H](Cc3ccc(O)cc3)NC(=O)[C@H](Cc3ccc(O)cc3)NC(=O)[C@@H](N)CCCCN)C(C)C)[C@@H](C)O)C(=O)NCC(=O)N[C@@H](CCCCN)C(=O)N[C@@H](Cc3c[nH]cn3)C(=O)N[C@@H](CO)C(=O)N2)C(C)C)[C@@H](C)O)[C@@H](C)O)CSSC[C@@H](C(N)=O)NC(=O)[C@H](CCCCN)NC(=O)[C@H](Cc2c[nH]cn2)NC(=O)[C@H](CC(N)=O)NC(=O)CNC(=O)[C@H](CCC(N)=O)NC(=O)[C@H](Cc2c[nH]cn2)NC(=O)CNC(=O)CNC(=O)[C@H]([C@@H](C)O)NC(=O)[C@H](C)NC(=O)[C@H](Cc2c[nH]c3ccccc23)NC(=O)[C@H](C)NC(=O)[C@H](CCSC)NC(=O)[C@H](C)NC(=O)CNC(=O)[C@H](CC(N)=O)NC(=O)[C@H](CC(N)=O)NC(=O)[C@H]([C@@H](C)CC)NC1=O [pediocin PA-1 from Biomatik, reference compound]
antimicrobial activity (in words) (L. seeligeri [2]): very low activity

CC[C@H](C)[C@@H]1NC(=O)[C@@H](NC(=O)[C@@H](NC(=O)[C@@H](NC(=O)[C@H](C)NC(=O)[C@H](CCCCN)NC(=O)CNC(=O)[C@H](Cc2c[nH]c3ccccc23)NC(=O)[C@H](CC(=O)O)NC(=O)[C@@H](NC(=O)[C@H](CO)NC(=O)[C@@H]2CSSC[C@H](NC(=O)[C@@H](NC(=O)[C@@H](NC(=O)CNC(=O)[C@H](CC(N)=O)NC(=O)CNC(=O)[C@H](Cc3ccc(O)cc3)NC(=O)[C@H](Cc3ccc(O)cc3)NC(=O)[C@@H](N)CCCCN)C(C)C)[C@@H](C)O)C(=O)NCC(=O)N[C@@H](CCCCN)C(=O)N[C@@H](Cc3c[nH]cn3)C(=O)N[C@@H](CO)C(=O)N2)C(C)C)[C@@H](C)O)[C@@H](C)O)CSSC[C@@H](C(N)=O)NC(=O)[C@H](CCCCN)NC(=O)[C@H](Cc2c[nH]cn2)NC(=O)[C@H](CC(N)=O)NC(=O)CNC(=O)[C@H](CCC(N)=O)NC(=O)[C@H](Cc2c[nH]cn2)NC(=O)CNC(=O)CNC(=O)[C@H]([C@@H](C)O)NC(=O)[C@H](C)NC(=O)[C@H](Cc2c[nH]c3ccccc23)NC(=O)[C@H](C)NC(=O)[C@H](CCSC)NC(=O)[C@H](C)NC(=O)CNC(=O)[C@H](CC(N)=O)NC(=O)[C@H](CC(N)=O)NC(=O)[C@H]([C@@H](C)CC)NC1=O [synthetic pediocin PA-1, reference compound]
EC50 (L. seeligeri [2]; 24 h): ~40 nM

synthetic pediocin-Atto488 conjugate: Atto488 conjugated to the synthetic pediocin using EDC-NHS coupling (KYYGNGVTCGKHSCSVDWGKATTCIINNGAMAWATGGHQGNHKC; disulfide (positions not given here); ends not checked; also: Atto488 conjugated via EDC-NHS, site not given here; UniProt P29430 19-62, looked up)
antimicrobial activity (in words) (L. seeligeri [2]): inactive

Ped-488: purified biosynthetic pediocin conjugated to Atto488 using EDC-NHS chemistry (KYYGNGVTCGKHSCSVDWGKATTCIINNGAMAWATGGHQGNHKC; disulfide (positions not given here); ends not checked; also: Atto488 conjugated via EDC-NHS, site not given here; UniProt P29430 19-62, looked up)
maximum median fluorescence (L. coryniformis): 6300 MFI
Kd (L. coryniformis; 4 °C 30 min, 1 % BSA, 100 mM NaCl, Hill fit, read-out: Apparent KD): ~46 nM
reduction in potency relative to the unmodified peptide (L. seeligeri [2]; Atto488 conjugate vs unmodified pediocin): 10 fold
antimicrobial activity (in words) (L. seeligeri [2]): maintained its antimicrobial activity
antimicrobial activity (in words) (L. seeligeri [2]; listed as Full-length pediocin conjugated to Atto488): retained antimicrobial activity
antimicrobial activity (in words) (L. seeligeri [2]; listed as conjugate to Atto488): very low activity
Kd (B. subtilis; Atto488 conjugate up to 2 μM, 4 °C 30 min, 1 % BSA, 100 mM NaCl, Hill fit, read-out: Apparent KD): ~467 nM

Ped-FITC: synthesized FITC-conjugated full-length pediocin PA-1 ({FITC}-KYYGNGVTCGKHSCSVDWGKATTCIINNGAMAWATGGHQGNHKC; disulfide (positions not given here); ends not checked; UniProt P29430 19-62, looked up)
depletion in the proportion of L. seeligeri (fluorescence-negative population after FACS) [3]: more than 50%
binding at the tested pHs (in words) (L. seeligeri [1]): strong binding
antimicrobial activity (in words) (L. seeligeri [2]; listed as FITC-conjugation at the N-terminus): abolished activity entirely
antimicrobial activity (in words) (L. seeligeri [2]; listed as conjugate to FITC): very low activity
binding (in words) (B. subtilis; pH 6.0, highest concentration tested (30 μM)): modest binding

synthetic pediocin-NBD conjugate: NBD (7-nitrobenz-2-oxa-1,3-diazole) conjugated to the synthetic pediocin using EDC-NHS coupling (KYYGNGVTCGKHSCSVDWGKATTCIINNGAMAWATGGHQGNHKC; disulfide (positions not given here); ends not checked; also: NBD conjugated via EDC-NHS, site not given here; UniProt P29430 19-62, looked up)
antimicrobial activity (in words) (L. seeligeri [2]): inactive
antimicrobial activity (in words) (L. seeligeri [2]; listed as conjugate to NBD): very low activity
